Columns and labels:
F. culmorum = assay: Inhibitory effect of pure lipopeptides and their combinations on fungal growth
Protocol: (§1) To further explore the potential synergistic effect between bioactive metabolites assays with single families of bioactive compounds and their combinations were performed.
(§2) Increasing concentrations of pure stocks of surfactin (Sigma S3523, FIG. 4A), fengycin (Sigma SMB00292, FIG. 4B) or iturin (Sigma 11774, FIG. 4C) were added to 48-well microtiter plates containing PDB medium and a fixed fungal spore concentration. Inhibitory effect over two different phytopathogenic species was assayed, F. culmorum (FIG. 4, left) and B. cinerea (FIG. 4, right). Plates were incubated at 25° C. without shaking for 60 hours (in dark conditions) and fungal growth was measured by spectrophotometry at 600 nm.
(§3) Fungal growth inhibition of increasing concentrations of single compounds was compared with compound combinations, where a fixed concentration of one of them was assayed in combination with increasing concentrations of the second metabolite.

B. cinerea = assay: as above
Protocol: as §1, §2, §3

[1] = single lipopeptide, 25° C., 60 hours
[2] = in the presence of surfactin, vs fengycin alone
[3] = with surfactin at 100-200 μg/ml

Row | Substance | inhibitory effect on growth at high concentrations (F. culmorum; 200-400 μg/ml surfactin alone) | inhibition of fungal growth (F. culmorum; [1]) | inhibitory effect on growth at high concentrations (B. cinerea; 200-400 μg/ml surfactin alone) | inhibition of fungal growth (B. cinerea; [1]) | effective concentration for strong growth inhibition (F. culmorum; [1]) [µg/mL] | effective concentration for strong growth inhibition (B. cinerea; [1]) [µg/mL] | increase of bioactivity of fengycin in the presence of surfactin (F. culmorum; [2]) | effective concentration of fengycin required to inhibit growth (F. culmorum; [3]) [µg/mL] | increase of bioactivity of fengycin in the presence of surfactin (B. cinerea; [2]) | effective concentration of fengycin required to inhibit growth (B. cinerea; [3]) [µg/mL]
1 | surfactin | very modest and barely decreased the growth | only compromised pathogen growth very weakly | very modest and barely decreased the growth | only compromised pathogen growth very weakly |  |  |  |  |  | 
2 | iturin |  | potent inhibition of fungal growth |  | potent inhibition of fungal growth | 9 | 9 |  |  |  | 
3 | fengycin |  | potent inhibition of fungal growth |  | potent inhibition of fungal growth |  |  | up to 6 fold | 12.5 | up to 6 fold | 12.5
